Experimental data reported in patent US9220723B2, “Cancer therapy” (BRANDEIS UNIVERSITY, priority 2010, dated 2015).

How the values were obtained:
[1] = test system: NRASD12 expressing NIH3T3 cells; assay: Immunofluorescence localization of NRASD12 after FASN inhibitor treatment; type: cell-based; details: 1 uM, 3 hrs post-treatment, anti-myc-tag immunofluorescence
Method: Localization of myc-tagged NRASD12 in MSCV-GFP-ires-2xmycNRASD12 infected NIH3T3 cells 3 hrs post-treatment with 1 uM cerulenin or 1 uM C75. NRASD12 were visualized by confocal microscope after probing with anti-myc-tag (9E10) antibody overnight at 4° C. and AlexaFluor-conjugated secondary antibody (red).
As a proof of principle studies of the effect of FASN inhibitors on NRAS palmitoylation/localization, we examined the effect of cerulenin and C75 on NRASD12 expressing NIH3T3 cells.

[2] = mouse, in vivo; cited from earlier work
[3] = caused by highly reactive epoxy group; cited from earlier work
murine DHHC9 mRNA = assay: Real-time RT-PCR of DHHC9 mRNA after siRNA transfection; type: cell-based; details: NIH3T3 cells, compared to scrambled siRNA
Method: (§1) (A) Relative DHHC9 (SEQ ID NO: 10) mRNA levels in NIH3T3 cells transfected by either DHHC9 (SEQ ID NO: 10) siRNA or control siRNA were determined by real-time RT-PCR. (B) GFP-NRASD12 expressing NIH3T3 cells transfected by either DHHC9 (SEQ ID NO: 10) siRNA or control siRNA were visualized by confocal microscope. Original magnification was 630×.
(§2) To determine the role of DHHC9 (SEQ ID NO: 10) in NRAS biology, we first examined the effect of DHHC9 (SEQ ID NO: 10) downregulation on cellular localization of oncogenic NRAS (NRASD12). RNA interference (RNAi) is a powerful tool for gene function studies and holds promise for the development of new molecular medicines. RNAi usually downregulate but often not abolish the target mRNAs, which mimic therapies more than gene-knockout. In addition, since DHHC9 (SEQ ID NO: 10) may have substrates other than RAS, knocking out the DHHC9 (SEQ ID NO: 10) gene might be toxic to cells. For these reasons we tested several small interference RNA (siRNA) specific to murine DHHC9 (SEQ ID NO: 10) for their ability to downregulate the DHHC9 (SEQ ID NO: 10) mRNA. […] Still further, the present invention provides systems for identifying cancer patients likely to respond to therapy that includes administration of one or more palmitoyl-acyl transferase inhibitors.

[4] = test system: NIH3T3 cells expressing the GFP-NRASD12 fusion protein; assay: Confocal localization of GFP-NRASD12 after DHHC9 siRNA transfection; type: cell-based; details: confocal microscopy
Method: as §1, §2

3T3-GFP-NRASD12 cells = assay: Confocal localization of GFP-NRASD12 after FASN miRNA transduction; type: cell-based; details: confocal microscopy
Description: (§3) Fixed and permeablized cells were stained with an anti-BIP antibody, followed by an alexafluor 635-conjugated secondary antibody, and visualized on a Leica TCS SP2 Spectral Confocal Microscope. Original magnification was 630×.
(§4) We then examined the effect of knocking down FASN expression on RAS localization by the RNA interference (RNAi) approach. RNAi is endogenously mediated by microRNA (miRNA) ^30. miRNAs are generated from primary transcripts (pri-miRNAs) and processed into pre-miRNA and eventually mature miRNA. Artificial miRNAs are natural pri-miRNA in which the stem sequence of a miRNA has been substituted with a sequence targeting the gene of interest. In target cells, artificial miRNA undergoes the same processing steps of the parental pri-miRNA. A FASN specific small hairpin (sh) RNA (Open-Biosystems) was cloned into a MSCV-based retroviral shRNAmir (pSM2; Open-Biosystems) vector to generate an artificial miRNA for FASN (the cloning oligo for the FASN shRNA: 5′ TGCTGTTGACAGTGAGCGCCGCTTCTTAGAGATTGGCAAATAGTGAAGCCACAGATGTATTTGCCAATCTCTAAGAAGCGATGCCTACTGCCTCGGA 3′ (SEQ ID NO: 35)). The miRNA is under the control a U6 promoter and the vector includes a puromycin resistance gene under the control of phosphoglycerate kinase (PGK) eukaryotic promoter ^31. […]

3T3-NRASD12 cells = assay: Cell morphology and foci (sphere) formation, 3T3-NRASD12; type: cell-based; details: 3T3-NRASD12 cells cultured for 6 days
Method: (§5) FIG. 16 illustrates the morphology of cultured NIH3T3 cells stably expressing the proteins and miRNAs indicated. Equal numbers (5×10^5) of cells were plated onto 100-mm plates after puromycin selection and were cultured for 6 days before representative pictures were taken (original magnification 100×)
(§6) Both 3T3-NRASD12 ^28 and 3T3-KRAS4BD12 form sphere-like foci in culture, while 3T3-MiG cells grow as normal NIH3T3 cells (FIG. 16). […] We plated equal cell numbers of scrambled or FASN miRNA-transduced, puromycin-selected 3T3-NRASD12 or 3T3-KRASD12 cell lines cultured for 6 days and observed cell morphology and foci formation (FIG. 16). […] However, these cells had somewhat altered morphology, similar to those observed in 3T3-NRASD12^C181S cells.

FASN = assay: Western blot of FASN expression after FASN miRNA transduction; type: cell-based; details: NIH3T3 cell lines, puromycin selected (data not shown)
Description: as §4, with “^31. A scrambled shRNA (the cloning oligo: 5′ TGCTGTTGACAGTGAGCGCTTCCTCTCTTTCTCTCCCTTTA GTGAAGCCACAGATGTACAAGGGAGAGAAAGAGAGGAAGGATGCCTACTGCCTCGGA 3′ (SEQ ID NO: 36)) was similarly cloned into pSM2 as a control.” for “^31.”

[5] = test system: NIH3T3 cells expressing GFP-KRAS4BD12; assay: Confocal localization of GFP-KRAS4BD12 after FASN miRNA transduction; type: cell-based; details: confocal microscopy
Description: as §3, §4

3T3-KRASD12 cells = assay: Cell morphology and foci (sphere) formation, 3T3-KRASD12; type: cell-based; details: 3T3-KRASD12 cells cultured for 6 days
Method: as §5, §6

C=C1C(=O)OC(CCCCCCCC)C1C(=O)O (centres unmarked) [C75]
localization of NRASD12 [1]: mislocalized to internal membranes | effects of treatment on metabolism, weight and feeding [2]: increased metabolism, rapid and significant weight loss, and fasting

C/C=C/C/C=C/CCC(=O)[C@H]1O[C@H]1C(N)=O [cerulenin, Cerulenin]
localization of NRASD12 [1]: mislocalized to internal membranes | stability [3]: innate instability

DHHC9 siRNA: siRNA specific to murine DHHC9; sense SEQ ID NO: 37, antisense SEQ ID NO: 38 (sense GGAAGAAGAACUAUGUAUUAUAUGT; antisense ACAUAUAAUACAUAGUUCUUCUUCCCU; chemistry not given here)
levels of DHHC9 mRNA (murine DHHC9 mRNA): dramatically reduced | localization of GFP-NRASD12 [4]: mislocalization of GFP-NRASD12 to internal membranes

B1: FASN miRNA: FASN specific small hairpin RNA (Open-Biosystems) cloned into pSM2 retroviral shRNAmir vector; cloning oligo SEQ ID NO: 35 (nucleic acid)
DNA: TGCTGTTGACAGTGAGCGCCGCTTCTTAGAGATTGGCAAATAGTGAAGCCACAGATGTATTTGCCAATCTCTAAGAAGCGATGCCTACTGCCTCGGA
localization of GFP-NRAS (3T3-GFP-NRASD12 cells): mislocalized to endomembranes | sphere (foci) formation (3T3-NRASD12 cells): no longer formed spheres | FASN expression (FASN): largely abolished | localization of GFP-KRAS4BD12 [5]: localized to both the plasma membrane and internal membranes | sphere (foci) formation (3T3-KRASD12 cells): formed spheres
